From patent US20060229299A1, “5ht2c Receptor antagonists in the treatment of schizophrenia” (priority 2003, published 2006)

What was measured:
5-HT7 receptor = 5-HT7 receptor (UniProt P34969); details: ref 11 (human and for ritanserin data also rat); cited from earlier work
5-HT2C receptor [1] = biological target: 5-HT2C receptor (UniProt P28335); details: ref 11 (human and for ritanserin data also rat); cited from earlier work
[2] = test system: 5-HT2C receptor relative to 5-HT2A and D2 receptors; assay: Relative 5-HT2C affinity (formula I, sum of 5-HT2C/5-HT2A and 5-HT2C/D2 affinity ratios); details: Table 2; sum of affinity ratios from data of Table 1
α1-adrenoceptor = details: ref 11 (human and for ritanserin data also rat); cited from earlier work
[3] = biological target: mACh, muscarinic acetylcholine receptor; details: ref 11 (human and for ritanserin data also rat); cited from earlier work
D3 dopamine receptor = D3 dopamine receptor (Homo sapiens, UniProt P35462); details: ref 11 (human and for ritanserin data also rat); cited from earlier work
H1 histamine receptor = H1 histamine receptor (Homo sapiens, UniProt P35367); details: ref 11 (human and for ritanserin data also rat); cited from earlier work
5-HT2C receptor [4] = biological target: T1, 5-HT2C receptor (Homo sapiens, UniProt P28335); details: Table 3; expressed as pKi or pKd values; known affinities; cited from earlier work
T1 sequence (P28335 33-458): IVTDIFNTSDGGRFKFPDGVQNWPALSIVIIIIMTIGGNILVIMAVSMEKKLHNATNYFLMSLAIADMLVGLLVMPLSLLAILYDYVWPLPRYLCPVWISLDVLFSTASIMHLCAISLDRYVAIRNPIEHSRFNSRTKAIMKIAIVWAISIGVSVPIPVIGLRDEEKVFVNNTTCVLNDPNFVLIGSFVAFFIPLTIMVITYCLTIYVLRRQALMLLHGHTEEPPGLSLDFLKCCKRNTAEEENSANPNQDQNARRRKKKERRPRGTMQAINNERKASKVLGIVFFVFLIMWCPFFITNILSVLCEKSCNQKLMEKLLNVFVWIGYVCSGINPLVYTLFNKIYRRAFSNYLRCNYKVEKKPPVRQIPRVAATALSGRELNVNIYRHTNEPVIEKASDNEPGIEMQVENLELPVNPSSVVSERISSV

α2-adrenoceptor = details: ref 11 (human and for ritanserin data also rat); cited from earlier work
sigma, σ receptor = details: ref 11 (human and for ritanserin data also rat); cited from earlier work
D2 receptor = D2 receptor (Homo sapiens, UniProt P14416); details: Table 3; expressed as pKi or pKd values; known affinities; cited from earlier work
Chain of D2 receptor (P14416 whole entry): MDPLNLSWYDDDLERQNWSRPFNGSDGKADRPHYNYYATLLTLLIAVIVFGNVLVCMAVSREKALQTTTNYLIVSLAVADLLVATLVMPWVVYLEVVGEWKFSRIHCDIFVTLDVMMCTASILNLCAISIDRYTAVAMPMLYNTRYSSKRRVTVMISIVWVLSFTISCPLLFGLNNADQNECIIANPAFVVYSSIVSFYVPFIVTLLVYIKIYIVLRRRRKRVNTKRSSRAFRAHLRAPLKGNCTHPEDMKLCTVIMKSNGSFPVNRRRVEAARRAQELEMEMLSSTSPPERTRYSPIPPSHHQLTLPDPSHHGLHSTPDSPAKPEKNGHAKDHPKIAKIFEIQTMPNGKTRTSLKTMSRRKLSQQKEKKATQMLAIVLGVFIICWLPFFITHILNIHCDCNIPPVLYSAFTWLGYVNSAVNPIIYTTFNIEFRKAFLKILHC

D1 dopamine receptor = details: ref 11 (human and for ritanserin data also rat); cited from earlier work
[5] = biological target: D2-L (long form of D2 receptor) (Homo sapiens, UniProt P14416); details: ref 11 (human and for ritanserin data also rat); cited from earlier work

Cc1nc2sccn2c(=O)c1CCN1CCC(=C(c2ccc(F)cc2)c2ccc(F)cc2)CC1 [Ritanserin]
5-HT7 affinity value (−logKi) (5-HT7 receptor): 7.8^11 | 5-HT2C affinity value (−logKi) (5-HT2C receptor [1]): 9.0^11 | (2C/2A) + (2C/D2) [2]: 2.15 | α1 affinity value (−logKi) (α1-adrenoceptor): 7.5^11 | mACh affinity value (−logKi) [3]: 5.4^11 | D3 affinity value (−logKi) (D3 dopamine receptor): 7.1^11 | H1 affinity value (−logKi) (H1 histamine receptor): 8.2^11 | 5-HT2C Affinity (5-HT2C receptor [4]): 9 | α2 affinity value (−logKi) (α2-adrenoceptor): 7.3^11 | sigma affinity value (−logKi) (sigma, σ receptor): 6.1^11 | D2 Affinity (D2 receptor): 7.4 | D1 affinity value (−logKi) (D1 dopamine receptor): 5.9^11 | D2-L affinity value (−logKi) [5]: 7.4^11
